System: delayed type hypersensitivity
Assay: Mouse Delayed Type Hypersensitivity Reaction Suppression Test-2 (donor spleen cells, subcutaneous administration)
Assay type: in vivo
Settings: C57BL/6 spleen cells; subcutaneous everyday from day of sensitization, totally 8 days; BALB/c
Source text: BALB/c mice (male, 7 weeks old) were used, and each group consisted of 4-5 mice. Spleen cells (1×10^7 ) obtained from a donor mouse (C57BL/6) was subcutaneously administered to sensitize the mice. On Day 7 from the sensitization, the spleen cells (5×10^6) of the donor were subcutaneously administered on the right hing leg and spleen cells (5×10^6) obtained from a mouse of the same line as the recipient mice were subcutaneously administered on the left footpad. Twenty four hours later, the thicknesses of the right and left footpads were measured with a dial thickness gage, and the difference in thicknesses of the right and left footpads before the induction of the reaction and 24 hours after the induction of the reaction was employed as the index of the degree of the reaction.
The test compound was dissolved in 10% DMSO-water and was subcutaneously administered everyday from the day of sensitization to the day of induction of the reaction, totally 8 days. In the control group, 10% DMSO-water alone was administered in the same manner. The volume of administration was 10 ml/kg in both study groups and in the control group. Delayed Type Hypersensitivity Reaction=(thickness of right foodpad after induction-thickness of right footpad before induction)-(thickness of […] before induction) [formula]
wherein C means delayed type hypersensitivity reaction of the group to which the test compound was administered and D means the delayed type hypersensitivity reaction of the group to which vehicle was administered.

Compound: Oc1ccc2c3c1O[C@H]1c4[nH]c5ccccc5c4C[C@@]4(O)[C@@H](C2)N(CC2CC2)CC[C@]314 [NTI, reference compound]
- % Suppression: 60%
